Series [1] concerns neonatal rat ventricular myocytes (NRVMs). The series can be described thus: Annexin V / propidium iodide apoptosis and cell death in NRVMs. Type of series: cell-based. On the procedure: FIGS. 5A-5B. In neonatal rat ventricular myocytes, dabuzalgron protects against apoptotic and necrotic cell death due to doxorubicin. […] Apoptosis was detected using FITC-labeled Annexin V, cell death was detected using propridium iodide, and nuclei were labeled with Hoechst. FIG. 5A. Representative epifluorescence microscopy for each treatment condition. FIG. 5B. Fluorescence intensity was analyzed using Image J software for 3 independent experiments, using at least 2 wells per condition for each experiment.
Cells were washed with cold PBS two times then incubated with 200 μl binding buffer (10 mM HEPES, 140 mM NaCl, and 2.5 mM CaCl2, pH 7.4) including 10 μL fluorescein isothiocyanate (FITC)-labeled Annexin V, 2 μL propidium iodide (PI) and 1 μg/mL Hoechst 33342 (Molecular Probes, USA) for 15 min at room temperature. They were examined under a epifluorescence microscopy (Olympus IX81 Inverted Light Microscope, UNC Microscopy Core). Images were analyzed using Image J software. The experiment was carried out three independent times with duplicates of each treatment condition. An average of 352 nuclei were counted in an average of 6 microscopic fields per experiment.

In the next series the test system is PGC1α. The series can be described thus: qRT-PCR for PGC1α in mouse heart tissue. Type of series: in vivo. On the procedure:
FIGS. 3A-3E. […] FIG. 3A. […] FIG. 3B. […] FIG. 3C. […] FIG. 3E.
(FIG. 3B). […] (FIG. 3C).
Total RNA was isolated from cells and tissue (QiagenRNeasy Plus mini kit #74134) and analyzed using a NanoDrop (ThermoScientific). For qRT-PCR, one […]g of RNA was reverse transcribed using High Capacity cDNA Reverse Transcription Kit (Life Technologies #4368814). Two step qRT-PCR reactions contained 2% of the cDNA product. All reactions were performed in triplicate in a Roche 480 Light Cycler. Relative quantitation of PCR products used the ΔΔCt method relative to two validated reference genes (Tbp and Polr2a). Similar efficiencies were confirmed for all primers. All probes and primers were from Roche.
A general note: Real-time PCR tracks product formation cycle by cycle.

Another series concerns wild type (WT) mice. The series can be described thus: Doxorubicin cardiotoxicity in wild type mice (survival, anatomy, conscious echocardiography, fibrosis). The text has this:
FIGS. 2A-2B. […] On Day 7 the mice underwent echocardiography prior to sacrifice. FIG. 2A. Fractional shortening, a measure of contractile function, with representative M-mode echocardiogram images. […] FIG. 2B. Heart sections from some of these mice (i.e. wild type mice) stained with Masson Trichrome. Fibrosis (weighted average collagen content) was quantified using Aperio ImageScope software.
(§1) On Day 7, mice underwent echocardiography and were sacrificed by cervical dislocation after an overdose of isoflurane.
Conscious transthoracic echocardiography was performed on loosely restrained mice in the McAllister Heart Institute Animal Models Core using a VisualSonics Vevo 2100 ultrasound system (VisualSonics, Inc., Toronto, Ontario, Canada). Two-dimensional and M-mode echocardiography were performed in the parasternal long-axis view at the level of the papillary muscle. Left ventricular systolic function was assessed by fractional shortening (% FS=[(LVEDD−LVESD)/LVEDD]×100). Reported values represent the average of at least five cardiac cycles per mouse. Sonographers and investigators were blinded to mouse treatment condition during image acquisition and analysis.
Mice were heparinized and the heart was perfused with 10 mL PBS followed by 20 mL of 4% PFA/PBS through a 23 G butterfly needle, excised and placed in 4% PFA/PBS for 24 hours then transferred to 70% EtOH. Hearts were stained using standard methods in the UNC Histology Research Core. Fibrosis was analyzed in 3 Masson Trichrome (MT)-stained sections of 4 or 5 hearts from each treatment group. Slides were scanned using an Aperio ScanScope (Aperio Technologies, Vista, Calif.) and analyzed in Aperio ImageScope software. The Algorithm Positive Pixel Count v9 was used to measure collagen staining by MT using hue value (0.66) and hue width (0.1) The N positive/N total value was used to determine a weighted average collagen content (%) for each section.

In a further series the test system is ERK. The series can be described thus: ERK activation in mouse heart lysates with DOX, dabuzalgron and trametinib. Type of series: in vivo.
From the text: FIGS. 4A-4F. […] The reaction was stopped immediately and lysates were blotted for total and phospho-ERK (pERK). FIG. 4A. […] FIG. 4B. […] FIG. 4C. […] The average pERK/ERK ratio for each experiment was derived from at least 2 individual wells and normalized to the pERK/ERK ratio for vehicle treated NRVMs. FIG. 4D and FIG. 4E. […] Heart lysates were blotted for pERK and ERK. Results were compared using one way ANOVA with Tukey post-test. FIG. 4F.
as §1
Homogenized tissue or cells were lysed in RIPA buffer with protease and phosphatase inhibitor (as above) and the lysate was passed through a Qiashredder. Equal protein abundance was assured with the Bradford assay (tissue lysates) or equal cell number (NRVMs). Samples were run for 2 hours at 140 v on ice on a Novex NuPAGE 4-12% Bis-Tris gel then transferred to a PVDF membrane at 90V for 1 hour on ice. Membranes were blocked in 5% milk at room temperature for 1 hour. We used Cell Signaling kit #9100 (pERK Thr202/Tyr204 1:250, ERK 1:1000, anti-rabbit HRP 1:1000). BID: (Santa Cruz, SC-11423); Cytochrome C: (Santa Cruz, SC-13560); AIF: (Santa Cruz, SC-13116); Caspase 8: (MBL international corporation, JM-3020-100); PARP: (Cell Signaling, #9532); Caspase 3: (Cell Signaling, #9665); Cleaved caspase 3: (Cell Signaling, #9664)

The mark [2] stands for this setting: NRVMs, DOX, four hour treatment.
The mark [3] stands for this setting: WT mice, dabuzalgron after DOX, Day 7.
[4] abbreviates: wild type mice, Dox 20 mg/kg i.p. + dabuzalgron 20 μg/kg/d gavage 7 days.
[5] abbreviates: wild type mice, Dox + 1240 20 μg/kg/d, Day 7 echocardiography.

Molecules are shown by their SMILES.

The results in this text go back to patent publication US11213514B2, “Alpha-1-adrenergic receptor agonist therapy” (The Regents of the University of California, priority 2016, dated 2022).

For `COc1cccc2c1C(=O)c1c(O)c3c(c(O)c1C2=O)C[C@@](O)(C(=O)CO)C[C@@H]3O[C@H]1C[C@H](N)[C@H](O)[C@H](C)O1` [DOX, doxorubicin], in series [1] (setting [2]), the “apoptosis (Annexin V staining)” value is recorded as “increased”; the “necrotic cell death (costaining with Annexin V and propidium iodide)” value is listed as “increased”. Besides, the PGC1α abundance result in the series on PGC1α (mouse heart in vivo, DOX) is listed as “decreased”. In addition, in the series on wild type (WT) mice (mouse, in vivo), the “burden of fibrosis, Masson Trichrome” value was “increased significantly” and the “contractile function, conscious echocardiography” value is recorded as “decrease”. For the same molecule, the 7-day survival in the series on wild type (WT) mice (wild type mice, Dox 20 mg/kg i.p. + vehicle gavage 7 days) is listed as 78%. Moreover, the 7-day survival in the series on wild type (WT) mice (wild type mice, Dox 20 mg/kg i.p. + vehicle gavage 7 days, listed as Dox) amounted to 78%. The “ERK activation in heart” value in the series with ERK (mice treated with DOX) is listed as “reduced”.

As to `Cc1c(OCC2=NCCN2)ccc(Cl)c1NS(C)(=O)=O` [dabuzalgron, N-[6-chloro-3-(4,5-dihydro-1H-imidazol-2-ylmethoxy)-2-methylphenyl]methanesulfonamide], the “Annexin V or propidium iodide staining vs untreated cells” value in series [1] is given as “did not change”. Also, in series [1] (NRVMs, DOX 204 with dabuzalgron 1004, four hours), the “effect on DOX-induced necrotic cell death” value is listed as “abrogated”. Further, the “effect on DOX-induced apoptosis” value in series [1] (NRVMs, DOX with dabuzalgron 1004, four hours) is on record as “abrogated”. Further, the PGC1α abundance entry in the series on PGC1α (hearts of mice treated with DOX) was “increased”. For the same molecule, the PGC1α abundance entry in the series with PGC1α (hearts of mice treated with vehicle control) is “increased”. Besides, in the series with wild type (WT) mice (DOX 20 mg/kg i.p., dabuzalgron 10 μg/kg twice daily 7 days), the “effect of dabuzalgron on DOX-induced decrease in survival” value was “not fully mitigated”. Also, the “effect on DOX-induced decrease in contractile function” value in the series with wild type (WT) mice (WT mice, Day 7, dabuzalgron after DOX) is on record as “prevented”. Besides, in the series on wild type (WT) mice (setting [3]), the “fractional shortening after DOX” value was “preserved” and the “left ventricular end systolic volume after DOX” value is on record as “preserved”. Further, the “effect on DOX-induced increase in fibrosis” value with wild type (WT) mice (WT mouse heart sections, dabuzalgron after DOX) is given as “mitigated”. The echocardiographic parameters result in the series with wild type (WT) mice (mouse, in vivo) is given as “no effect”. Moreover, in the series on wild type (WT) mice (setting [4]), the 7-day survival turned out to be 86%, the “Body Wt Day 7” value is listed as 24.3 ± 0.6 g, the HW/BW amounted to 0.41 ± 0.02 % and the HW/TL is 5.5 ± 0.3 mg/mm. For the same molecule, in the series with wild type (WT) mice (setting [4]), the “Heart Wt” value worked out at 97 ± 5 mg and the “Lung Wt/TL” value is on record as 7.7 ± 0.4 mg/mm. In the series on wild type (WT) mice (setting [5]), the “FS (Fractional Shortening)” value worked out at 53 ± 1 %; the “HR (Heart Rate)” value turned out to be 667 ± 10 beats per minute; the LVs vol (Left Ventricular systolic volume) was 5 µL; the PWd (Posterior Wall, diastole) was 0.9 mm. Further, the “effect on DOX-induced reduction of ERK activation” value with ERK (mice, DOX + dabuzalgron) is listed as “partially mitigated”. For the same molecule, the “ERK activation after trametinib” value in the series on ERK (mice, DOX, dabuzalgron and trametinib) is listed as “could not restore”.
